{
  "source": "patent US6337330B1",
  "about": "“Antitussives” (priority 1997, dated 2002)",
  "key": {"[1]": {"system": "Mouse Model of Capsaicin-induced Cough", "test": "Antitussive action using mouse model of capsaicin-induced cough", "format": "in vivo", "procedure": "Evaluation of Antitussive Action Using Mouse Model of Capsaicin-induced Cough\nCapsaicin (30 μM) was sent as aerosol to a cap attached to the head of a mouse by using an ultrasonic nebulizer and an artificial respiratory apparatus through a silicon tube, and inhaled by the mouse to induce coughs. For inhalation of capsaicin, capsaicin was sent by using the artificial respiratory apparatus at a rate of 60 times per minute in a dose of 5 ml at a time.\n15 minutes before administration of a medicine, capsaicin was inhaled for 3 minutes, and it was confirmed that coughs were induced during this time. 15 minutes, 60 minutes and 120 minutes after administration of a medicine, capsaicin was inhaled for 3 minutes to measure the number of coughs induced during this time. The antitussive effect was evaluated by determining the inhibition rate shown by the number of coughs after administration of a medicine based on the number of coughs before administration of a medicine. Capsaicin was dissolved in 10% ethanol and a 10% Tween 80 solution, and diluted with physiological saline. The medicine was dissolved in physiological saline, and intraperitoneally administered."}, "[2]": {"system": "Rat Model of Capsaicin-induced Cough", "test": "Antitussive action using rat model of capsaicin-induced cough", "format": "in vivo, SD male rats", "settings": "30 minutes after administration, capsaicin 60 μM, versus distilled water group", "text": "Evaluation of Antitussive Action Using Rat Model of Capsaicin-induced Cough\nRat groups each consisting of 5 SD male rats (Charles River Japan) of 7 weeks old were used. The rats not anesthetized were placed in a container comprising two acrylic cylinders including a head and a body. A rubber collar and plastic collar were put on each of the rats, and the head and body of the container were independently provided.\nCapsaicin used as a medicine for inducing coughs was aerosolized by an ultrasonic nebulizer, and inhaled by the rats from the front side of the container by using an artificial respiration apparatus. The concentration of capsaicin was 60 μM. In this inhalation, the flow rate of air was 10 ml×70 times/min (700 ml/min). Changes in internal pressure of the closed body box were recorded on a recorder through a differential transducer. Coughs were measured by the changes in internal the body box and visually observing the motions of the rats.\nA medicine was diluted with distilled water, and 1 to 10 mg/5 ml/kg was subcutaneously administered.\nEach of the rats was fixed by a holder, and 60 minutes after, capsaicin was inhaled for 3 minutes to count the number of coughs. The rats having at least 9 coughs were subjected to examination of a medicine. The rats were administered subcutaneously with a medicine, and fixed by a holder, and 30 minutes after, capsaicin was inhaled for 3 minutes to count the number of coughs. The antitussive action of each of compounds was represented by the inhibition rate shown by the number of coughs of the group in which a medicine was administered based on the number of coughs of the group in which distilled water was administered."}},
  "data": [
    {"smiles": "COc1cccc([C@@]23CCN(C)C[C@@H]2Cc2cc4ccccc4nc2C3)c1", "values": [
      {"measurement": "melting point", "result": "154 to 155.5", "unit": "°C"}
    ]},
    {"smiles": "CN1CC[C@@]2(c3cccc(O)c3)Cc3nc4ccccc4cc3CC2C1", "note": "(stereo in doubt) [Compound 2, (4aR, 12aR)-2-methyl-4a-(3-hydroxyphenyl)-1,2,3,4,4a,5,12,12a-octahydro-quinolino[2,3-g]isoquinoline]", "values": [
      {"measurement": "time of peak antitussive effect after administration", "setting": "[1]; 10 μg/kg intraperitoneal", "result": 15, "unit": "min"},
      {"measurement": "antitussive effect 120 minutes after administration", "setting": "[1]; 10 μg/kg intraperitoneal, 120 minutes after administration", "result": "recovered to the same level as a group in which physiological saline was administered"},
      {"measurement": "effect of suppressing coughs (inhibition rate of number of coughs)", "setting": "[1]; 10 μg/kg intraperitoneal, versus physiological saline group, p<0.05 (U test)", "result": "significant effect of suppressing coughs"},
      {"measurement": "ED50", "setting": "[1]; ip, intraperitoneal, fifteen minutes after administration, capsaicin 30 μM inhalation, calculated from FIG. 2, read-out: ED50 value of the antitussive effect", "result": 4.2, "unit": "µg/kg"},
      {"measurement": "Inhibition rate (%) of number of coughs", "setting": "[2]; 1 mg/kg subcutaneous", "result": 72.5, "unit": "%"}
    ]},
    {"smiles": "Oc1cccc([C@@]23CCNCC2Cc2cc4ccccc4nc2C3)c1", "note": "(stereo in doubt) [Compound 4, (4aR, 12aR)-4a-(3-hydroxyphenyl)-1,2,3,4,4a,5,12,12a-octahydroquinolino[2,3-g]isoquinoline]", "values": [
      {"measurement": "Inhibition rate (%) of number of coughs", "setting": "[2]; 10 mg/kg subcutaneous", "result": 34.0, "unit": "%"}
    ]},
    {"smiles": "Oc1cccc([C@@]23CCN(CC4CC4)CC2Cc2cc4ccccc4nc2C3)c1", "note": "(stereo in doubt) [Compound 6, (4aR, 12aR)-2-cyclopropylmethyl-4a-(3-hydroxyphenyl)-1,2,3,4,4a,5,12,12a-octahydroquinolino[2,3-g]isoquinoline]", "values": [
      {"measurement": "Inhibition rate (%) of number of coughs", "setting": "[2]; 1 mg/kg subcutaneous", "result": 30.9, "unit": "%"}
    ]},
    {"smiles": "Oc1cccc([C@@]23CCN(CCc4ccccc4)C[C@H]2Cc2cc4ccccc4nc2C3)c1", "note": "[Compound 7, (4aR, 12aR)-2-(2-phenethyl)-4a-(3-hydroxyphenyl)-1,2,3,4,4a,5,12,12a-octahydroquinolino[2,3-g]isoquinoline]", "values": [
      {"measurement": "Inhibition rate (%) of number of coughs", "setting": "[2]; 1 mg/kg subcutaneous", "result": 44.3, "unit": "%"}
    ]}
  ]
}
